Structures can show the parent of a compound that is named as a salt.
How the values were obtained:
[1] = tested on: ptosis induced by tetrabenazine; assay: Ptosis induced by tetrabenazine; type: in vivo; settings: for Ptosis score: tetrabenazine 40 mg/kg i.p., 3 hrs, Mean ± S.E., N 6; for effects of erythro-DOPS on combination use of a peripheral decarboxylase inhibitor: combination with erythro-DOPS
Method: L-threo-DOPS (100 mg/kg and 200 mg/kg) was intraperitoneally injected at the same time with the intraperitoneal injection of tetrabenazine (40 mg/kg) and at 1 hr. after the intraperitoneal injection of benserazide or carbidopa.
The score of ptosis was measured by the method of Fukushima et al. (Arch. Int. Pharmacodyn. Therp. 229 163 1977) at 3 hrs. after the injection of tetrabenazine.

[2] = tested on: aromatic L-amino acid decarboxylase; settings: decarboxylation by aromatic L-amino acid decarboxylase; cited from earlier work
[3] = tested on: quantity of spontaneous movement of mice; assay: Spontaneous movement of mice pretreated with PIH (Animex); type: in vivo
Method: Three mice as one group were put in a movement measuring box of Animex and quantity of spontaneous movements of the mice were measured at given intervals of time.
Thereafter, they gradually became calm and crouched after about 30-40 minutes resulting in much decrease in their spontaneous moving quantity. β-phenylisopropylhydrazine hydrochloride (Catron, trade name) (referred to as "PIH" hereinafter) which is a monoamine oxidase inhibitor (MAOI) was intraperitoneally administered to the mice in an amount of 50 mg/kg.
Separately, 200 mg/kg of DL-erythro-DOPS was intraperitoneally injected to the mice and the effects thereof were examined.
In FIG. 1 the axis of ordinates indicates the quantity of movement (counts/5 min.) and the axis of abscissae indicates the time (minute) from the beginning of measurement of the quantity of spontaneous movement which was after 30 minutes from administration of DL-erythro-DOPS.

[4] = tested on: quantity of spontaneous movement of mice increased by administration of methamphetamine; assay: Spontaneous movement of mice with methamphetamine; type: in vivo
Method: The same experimental system of measuring spontaneous movement quantity of mice as used in Experimental Example 1 was employed in this Example.
In FIG. 2, the axis of ordinates indicates the quantity of spontaneous movement and the axis of abscissa indicates the time (minute) when the time at which the administration of methamphetamine (1.4 mg/kg) alone or methamphetamine with DL-erythro-DOPS (200 mg/kg) was carried out was taken as zero point.

[5] = tested on: Amine content in the brain; assay: Amine content in the brain of mice administered with erythro-DOPS; type: in vivo; settings: for Dopamine content in the brain / Serotonin content in the brain / Noradrenaline (NA) content in the brain: mean of three mice ±SD
Method: PIH (50 mg/kg) was previously administered to mice and after lapse of 17 hours, physiological saline or DL-erythro-DOPS (200 mg/kg) was intraperitoneally injected to the mice.
Amine content in the brain was measured after a lapse of 30 minutes from the injection.
The content was expressed as ng/g wet weight and shown as mean value of the three mice±SD.

[6] = tested on: quantity of spontaneous movement of mice administered with tranylcypromine; assay: Spontaneous movement of mice administered with tranylcypromine; type: in vivo
Method: The same experimental system of measuring the quantity of spontaneous movement of mice as used in Experimental Example 1 was used in this Example.
In FIG. 3, the axis of ordinates indicates the quantity of spontaneous movement and the axis of abscissae indicates the lapse of time (minute) and the arrows indicate the time when administration was conducted.

[7] = Acute oral toxicity (LD50); settings: mouse, in vivo
[8] = animal experiments; U.S. Pat. No. 3,920,728; cited from earlier work
harmaline induced tremor = settings: Japanese Patent Publication No. 125630/1977; cited from earlier work
orthostatic hypotension = settings: U.S. Pat. No. 4,330,558; cited from earlier work
[9] = tested on: freezing phenomenon in parkinson's disease; settings: UK Patent Publication No. 2106388; cited from earlier work
[10] = major tranquilizers; cited from earlier work
[11] = tested on: Amine content in the brain; assay: Amine content in the brain of PIH administered mice; type: in vivo; settings: PIH 50 mg/kg i.p., 17 hours, mean of three mice ±SD
Method: A physiological saline or PIH (50 mg/kg) was intraperitoneally injected to mice and content of amine in the brain was measured after 17 hours.
The measurement was substantially in accordance with the method of Ogasawara et al (J. Chromatography 180, 119). The content was expressed as ng/g wet weight and shown as mean value of the three mice ±SD.

mania = settings: cited from earlier work
[12] = continuously in blood; cited from earlier work
[13] = DL-erythro-DOPS 200 mg/kg i.p. together with methamphetamine 1.4 mg/kg
[14] = PIH 50 mg/kg 17 hours before + DL-erythro-DOPS 200 mg/kg i.p., 30 minutes
[15] = DL-erythro-DOPS given 180 minutes after tranylcypromine
[16] = PIH 50 mg/kg i.p., 16 hours after administration
[17] = PIH 50 mg/kg + physiological saline, 30 minutes after injection

## N[C@H](C(=O)O)[C@@H](O)c1ccc(O)c(O)c1 (racemic) [L-erythro-DOPS, L or DL-erythro-3-(3,4-dihydroxyphenyl)serine]
[1]; 100 mg/kg i.p. alone
  Ptosis score: 2.0 ± 0.4
[1]; 200 mg/kg i.p. alone
  Ptosis score: 2.3 ± 0.5
[2]
  conversion to noradrenaline in vivo: to d-NA

## N[C@H](C(=O)O)[C@@H](O)c1ccc(O)c(O)c1 (relative stereo) [DL-erythro-DOPS, DL-erythro-3-(3,4-dihydroxyphenyl)serine]
[3]; DL-erythro-DOPS 200 mg/kg i.p., mice pretreated with PIH (50 mg/kg)
  quantity of spontaneous movement: conspicuous decrease in the quantity of spontaneous movement
[4]; [13]
  action of methamphetamine to increase the quantity of spontaneous movement: retrained
  increase of the quantity of movement: not noticeable
[5]; [14]
  Dopamine content in the brain: 895 ± 52 ng/g wet weight
  Serotonin content in the brain: 821 ± 92 ng/g wet weight
[5]; PIH 50 mg/kg 17 hours before + DL-erythro-DOPS 200 mg/kg i.p., 30 minutes, *: P <0.005
  Noradrenaline (NA) content in the brain: 1476 ± 105 ng/g wet weight
[6]; [15]
  quantity of movement: began to decrease
  time after which the quantity of movement began to decrease: about 20 minutes
[6]; DL-erythro-DOPS given 180 minutes after tranylcypromine, then returned to original increased state
  duration of decrease in quantity of movement: 30 to 90 min

## N[C@H](C(=O)O)[C@@H](O)c1ccc(O)c(O)c1 (relative stereo) [erythro-DOPS, erythro-3-(3,4-dihydroxyphenyl)serine]
[7]
  Toxicity: extremely low
[7]; po
  LD50: ≥ 5000 mg/kg
[3]; summary of Experimental Examples 1 to 3
  suppression of psychomotor excitement: suppresses psychomotor excitement
[1]; administration of erythro-DOPS
  ptosis induced by tetrabenazine: enhanced
[8]
  antihypertensive or antidepressive effect: has an antihypertensive or antidepressive effect
[5]; Experimental Examples 4 and 5
  change of contents of amines in the brain (NA, dopamine, serotonin): only NA significantly increases

## N[C@H](C(=O)O)[C@H](O)c1ccc(O)c(O)c1 (relative stereo) [threo-DOPS]
Harmaline induced tremor
  effect on harmaline induced tremor: inhibitory effect
Orthostatic hypotension
  treatment of orthostatic hypotension: clinically effective
[8]
  antihypertensive or antidepressive effect: has an antihypertensive or antidepressive effect
[9]
  treatment of freezing phenomenon in parkinson's disease: clinically effective

## N[C@@H]1C[C@H]1c1ccccc1 (relative stereo) [tranylcyromine]
[6]; 50 mg/kg i.p.
  spontaneous movement: gradually increased
[6]; 50 mg/kg i.p., after administration, then maintained
  time to maximum spontaneous movement: 120 min

## CN(C)CCCN1c2ccccc2Sc2ccc(Cl)cc21 [Chloropromazine]
[10]
  tranquilizing effects: strong tranquilizing effects

## N[C@H](C(=O)O)C(O)c1ccc(O)c(O)c1 (stereo partly drawn) [L-DOPS]
[2]
  conversion to noradrenaline in vivo: converted to noradrenaline

## N[C@H](C(=O)O)[C@H](O)c1ccc(O)c(O)c1 [L-threo-DOPS]
[2]
  conversion to noradrenaline in vivo: converted to l-NA

## CC(Cc1ccccc1)NN (stereo not drawn) [PIH, β-phenylisopropylhydrazine hydrochloride]
[3]; [16]
  quantity of spontaneous movement: tendencies of increase in the spontaneous movement quantity
  time required before the mice became calm: increase in time required before the mice became calm
[5]; [17]
  Dopamine content in the brain: 941 ± 56 ng/g wet weight
  Noradrenaline (NA) content in the brain: 832 ± 88 ng/g wet weight
  Serotonin content in the brain: 942 ± 133 ng/g wet weight
[11]; **: P <0.05
  Dopamine content in the brain: 1026 ± 122 ng/g wet weight
[11]; *: P <0.005
  Noradrenaline (NA) content in the brain: 1085 ± 79 ng/g wet weight
  Serotonin content in the brain: 1260 ± 39 ng/g wet weight

## NC(CO)C(=O)NNCc1ccc(O)c(O)c1O (stereo not drawn) [benserazide]
[1]
  effects of erythro-DOPS on combination use of a peripheral decarboxylase inhibitor: significantly enhanced

## NC(=O)N1c2ccccc2C=Cc2ccccc21 [carbamazepine]
mania; human, in vivo
  antimanic effect: has an antimanic effect

## C[C@@](Cc1ccc(O)c(O)c1)(NN)C(=O)O [carbidopa]
[1]
  effects of erythro-DOPS on combination use of a peripheral decarboxylase inhibitor: significantly enhanced

## O=C(CCCN1CCC(O)(c2ccc(Cl)cc2)CC1)c1ccc(F)cc1 [haloperidol]
[10]
  tranquilizing effects: strong tranquilizing effects

## COc1ccc2c(c1)N(C[C@H](C)CN(C)C)c1ccccc1S2 [levomepromazine]
[10]
  tranquilizing effects: strong tranquilizing effects

## O=C(O)O [lithium carbonate]
mania; treatment with lithium carbonate
  time before a noticeable effect: 3 to 8 days

## CN[C@@H](C)Cc1ccccc1 [methamphetamine]
[4]; methamphetamine 1.4 mg/kg i.p.
  quantity of spontaneous movement: abruptly increased
  time to restoration to nearly the former state: 2 h
[4]; methamphetamine 1.4 mg/kg i.p., from the injection
  time after which quantity of spontaneous movement began to decrease: 50 min

## lithium
[12]
  lithium concentration in blood at which lithium poisoning will occur: ≥ 2.0 mEq/l
